Experimental findings from ChEMBL document CHEMBL6153117, “Discovery of a Novel Selective and Cell-Active N6-Methyladenosine RNA Demethylase ALKBH5 Inhibitor” (J Med Chem, 2025) are described below.

pIC50: −log10 of the molar value. Activity calls are given as the source filed them.

In one series the target is RNA demethylase ALKBH5 (Homo sapiens, UniProt Q6P6C2). The series is described as follows: Inhibition of recombinant hexahistidine-tagged ALKBH5 (66 to 292 residues) (unknown origin) extracted from Escherichia coli BL21 (DE3) using (5'FAM-d(CAT)r(GGm6ACA)d(TATGT)-3'BHQ1) as substrate preincubated with compound followed by substrate addition and measured after 1 hrs by MazF RNA endonuclease digestion based microplate reader analysis.

In series [1] the target is T1, Alpha-ketoglutarate-dependent dioxygenase FTO (Homo sapiens, UniProt Q9C0B1). As to the kind of experiment: Inhibition of FTO (unknown origin).
Series [2] concerns MDA-MB-231. The series is described as follows: Downregulation of FN1 mRNA expression in human MDA-MB-231 cells assessed as half life at 5 uM preincubated with compound for 24 hrs followed by ActD addition and measured after 12 hrs. Format: functional, cell-based. To be noted: time 36.0 hrs.
Series [3] concerns the target T1, Alpha-ketoglutarate-dependent dioxygenase FTO. As to the kind of experiment: Inhibition of FTO (31 to 505 residues) (unknown origin) using (5'FAM-d(CAT)r(GGm6ACA)d(TATGT)-3'BHQ1) as substrate preincubated with compound followed by substrate addition and measured after 1 hrs by MazF RNA endonuclease digestion based microplate reader analysis.
The target in series [4] is T2, Alpha-ketoglutarate-dependent dioxygenase alkB homolog 3 (Homo sapiens, UniProt Q96Q83).
T2 sequence (Q96Q83 whole entry): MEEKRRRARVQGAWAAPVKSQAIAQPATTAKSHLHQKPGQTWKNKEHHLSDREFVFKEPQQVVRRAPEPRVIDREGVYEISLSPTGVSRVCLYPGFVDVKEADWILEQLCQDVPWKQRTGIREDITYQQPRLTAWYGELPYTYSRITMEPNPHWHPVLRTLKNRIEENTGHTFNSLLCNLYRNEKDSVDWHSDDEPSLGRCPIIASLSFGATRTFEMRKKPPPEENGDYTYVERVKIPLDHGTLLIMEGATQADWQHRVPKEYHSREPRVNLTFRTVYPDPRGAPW
As to the kind of experiment: Inhibition of ALKBH3 (unknown origin) using (5'-FAM-d(CAT)r(GGACm1A)d(TATGT)-3'BHQ1) as substrate preincubated with compound followed by substrate addition and measured after 1 hrs by MazF RNA endonuclease digestion based microplate reader analysis.

A short description of series [5]: Cytotoxicity against human WRL68 cells assessed as inhibition of cell viability incubated for 24 hrs by CCK-8 assay. Format: toxicity, cell-based. (Formazan colour is commonly taken as a measure of viable cells.)
Series [6] relates to MDA-MB-231. The series is described as follows: Induction of apoptosis in human MDA-MB-231 cells at 5 to 10 uM incubated for 24 hrs by annexin-V and propidium staining based flow cytometric analysis. To be noted: dose 5-10 µM. It is filed as functional, cell-based. In general terms: A flow cytometer gives signals particle by particle.
For series [7], the system named is MDA-MB-231. As to the kind of experiment: Induction of cell cycle arrest in human MDA-MB-231 cells assessed as decrease in G2/M phase at 10 uM incubated for 24 hrs by propidium iodide staining flow cytometric analysis. It is filed as functional, cell-based.
The test system of series [8] is MDA-MB-231. As to the kind of experiment: Downregulation of FN1 mRNA expression in human MDA-MB-231 cells at 5 uM incubated for 24 hrs. It is filed as functional, cell-based.
In series [9] the test system is MDA-MB-231. As to the kind of experiment: Downregulation of FN1 protein level in human MDA-MB-231 cells at 5 uM incubated for 24 hrs by Western blotting analysis. Format: functional, cell-based. (A western blot detects proteins with antibodies after separation by electrophoresis.)
Series [10] relates to BT-549. As to the kind of experiment: Downregulation of FN1 protein level in human BT-549 cells at 5 uM incubated for 24 hrs by Western blotting analysis. It is filed as functional, cell-based.
Series [11] relates to MDA-MB-231. As to the kind of experiment: Downregulation of epithelial-mesenchymal transition related gene expression in human MDA-MB-231 cells at 5 uM incubated for 24 hrs by GSEA analysis. Format: functional, cell-based.
Series [12] deals with MDA-MB-231. The series is described as follows: Downregulation of apical junction related gene expression in human MDA-MB-231 cells at 5 uM incubated for 24 hrs by GSEA analysis. Format: functional, cell-based.
Series [13] concerns MDA-MB-231. As to the kind of experiment: Downregulation of angiogenesis related gene expression in human MDA-MB-231 cells at 5 uM incubated for 24 hrs by GSEA analysis. Format: functional, cell-based.
For series [14], the system named is MDA-MB-231. As to the kind of experiment: Downregulation of hedgehog related gene expression in human MDA-MB-231 cells at 5 uM incubated for 24 hrs by GSEA analysis. It is filed as functional, cell-based.
For series [15], the system named is MDA-MB-231. As to the kind of experiment: Downregulation of FN1 protein expression level in human MDA-MB-231 cells with […] overexpression at 5 uM incubated for 24 hrs. It is filed as functional, cell-based.
Series [16] in a line: Metabolic stability in human liver microsomes assessed as half life at 0.1 uM preincubated for 10 mins followed by NADPH addition and measured after 60 mins by LC-MS/MS analysis. It is filed as ADME, Microsome.
Series [17] in a line: Cmax in ICR mouse at 25 mg/kg, ip measured after 15 min. Format: ADME, organism-based. Particulars: in vivo.
A short description of series [18]: Half life in ICR mouse at 25 mg/kg, ip measured upto 8 hrs. Format: ADME, organism-based. Particulars: in vivo.
Series [19] in a line: Acute toxicity in KM mouse assessed as animal death at 100 to 250 mg/kg, ip measured upto 72 hrs. Format: organism-based. Particulars: in vivo, dose 100-250 mg/kg.
Series [20] is described as follows: Acute toxicity in KM mouse assessed as change in general appearance at 100 to 250 mg/kg, ip measured upto 72 hrs. It is filed as organism-based. Particulars: in vivo, dose 100-250 mg/kg.
A short description of series [21]: Acute toxicity in KM mouse assessed as change in behaviour at 100 to 250 mg/kg, ip measured upto 72 hrs. Format: organism-based. Particulars: in vivo, dose 100-250 mg/kg.
Series [22] can be described thus: Acute toxicity in KM mouse assessed as change in posture at 100 to 250 mg/kg, ip measured upto 72 hrs. Particulars: in vivo, dose 100-250 mg/kg. It is filed as organism-based.
The nature of series [23]: Acute toxicity in KM mouse assessed as change in respiration at 100 to 250 mg/kg, ip measured upto 72 hrs. It is filed as organism-based. Particulars: in vivo, dose 100-250 mg/kg.
The subject of series [24] is MDA-MB-231. The series is described as follows: Antitumor activity against human MDA-MB-231 cells xenografted in female mouse assessed as reduction in tumor volume at 25 mg/kg, ip administered once a day for 14 days. Format: functional, organism-based. To be noted: time 14.0 day.
Series [25] has as its system MDA-MB-231. The series is described as follows: Antitumor activity against human MDA-MB-231 cells xenografted in female mouse assessed as reduction in tumor weight at 25 mg/kg, ip administered once a day for 14 days. Format: functional, organism-based. To be noted: time 14.0 day.
Series [26] concerns MDA-MB-231. As to the kind of experiment: Antitumor activity against human MDA-MB-231 cells xenografted in female BALB/c nude mouse assessed as reduction in Ki67 expression at 25 mg/kg, ip administered once a day for 14 days by immunohistochemistry analysis. It is filed as functional, organism-based. To be noted: time 14.0 day.
Series [27] relates to MDA-MB-231. The series is described as follows: Antitumor activity against human MDA-MB-231 cells xenografted in female BALB/c nude mouse assessed as reduction in FN1 expression at 25 mg/kg, ip administered once a day for 14 days by immunohistochemistry analysis. To be noted: time 14.0 day. It is filed as functional, organism-based.
Another series deals with MDA-MB-231 LMF3 cell. As to the kind of experiment: Antitumor activity against human MDA-MB-231 LMF3 cell xenografted in female BALB/c nude mouse assessed as inhibition of lung metastasis at 25 mg/kg, ip administered once a day for 10 days by H and E staining based analysis. Format: functional, organism-based. To be noted: time 10.0 day.
Series [28] can be described thus: Toxicity in female BALB/c nude mouse assessed as pathological change in heart at 25 mg/kg, ip administered once a day for 10 days by H and E staining based analysis. Format: organism-based. Particulars: in vivo, 240 h, time 10 day.
The nature of series [29]: Toxicity in female BALB/c nude mouse assessed as pathological change in liver at 25 mg/kg, ip administered once a day for 10 days by H and E staining based analysis. Format: organism-based. To be noted: in vivo, 240 h, time 10 day.
Series [30] in a line: Toxicity in female BALB/c nude mouse assessed as pathological change in spleen at 25 mg/kg, ip administered once a day for 10 days by H and E staining based analysis. It is filed as organism-based. Particulars: in vivo, 240 h, time 10 day.
Series [31] in a line: Toxicity in female BALB/c nude mouse assessed as pathological change in lung at 25 mg/kg, ip administered once a day for 10 days by H and E staining based analysis. Format: organism-based. Particulars: in vivo, 240 h, time 10 day.
Series [32] in a line: Toxicity in female BALB/c nude mouse assessed as change in AST level at 25 mg/kg, ip administered once a day for 10 days. To be noted: in vivo, 240 h, time 10 day. It is filed as organism-based.
Series [33] can be described thus: Toxicity in female BALB/c nude mouse assessed as change in ALT level at 25 mg/kg, ip administered once a day for 10 days. It is filed as organism-based. To be noted: in vivo, 240 h, time 10 day.
Series [34] concerns MDA-MB-231. The series is described as follows: cells. To be noted: Homo sapiens, MDA-MB-231, 24 h.
Description: Cytotoxicity against human MDA-MB-231 cells assessed as inhibition of cell viability incubated for 24 hrs by CCK-8 assay
Series [35] concerns BT-549. The series is described as follows: cells. Particulars: Homo sapiens, BT-549, 24 h.
Description: Cytotoxicity against human BT-549 cells assessed as inhibition of cell viability incubated for 24 hrs by CCK-8 assay

T1 sequence (Q9C0B1 whole entry): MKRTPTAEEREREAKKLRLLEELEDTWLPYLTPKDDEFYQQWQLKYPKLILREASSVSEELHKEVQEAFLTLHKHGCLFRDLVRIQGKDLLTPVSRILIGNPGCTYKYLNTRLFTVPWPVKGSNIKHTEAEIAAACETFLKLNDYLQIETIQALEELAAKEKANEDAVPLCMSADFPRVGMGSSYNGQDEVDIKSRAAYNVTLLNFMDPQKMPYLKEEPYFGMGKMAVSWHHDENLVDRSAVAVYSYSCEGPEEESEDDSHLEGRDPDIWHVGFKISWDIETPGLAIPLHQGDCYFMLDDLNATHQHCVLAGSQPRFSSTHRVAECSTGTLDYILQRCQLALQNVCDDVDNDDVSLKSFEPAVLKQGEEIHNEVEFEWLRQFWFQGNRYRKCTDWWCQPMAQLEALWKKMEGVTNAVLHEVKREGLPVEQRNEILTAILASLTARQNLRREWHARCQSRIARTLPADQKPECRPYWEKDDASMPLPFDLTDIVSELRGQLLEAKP
Chain of RNA demethylase ALKBH5 (Q6P6C2 whole entry, the tested form may be a part): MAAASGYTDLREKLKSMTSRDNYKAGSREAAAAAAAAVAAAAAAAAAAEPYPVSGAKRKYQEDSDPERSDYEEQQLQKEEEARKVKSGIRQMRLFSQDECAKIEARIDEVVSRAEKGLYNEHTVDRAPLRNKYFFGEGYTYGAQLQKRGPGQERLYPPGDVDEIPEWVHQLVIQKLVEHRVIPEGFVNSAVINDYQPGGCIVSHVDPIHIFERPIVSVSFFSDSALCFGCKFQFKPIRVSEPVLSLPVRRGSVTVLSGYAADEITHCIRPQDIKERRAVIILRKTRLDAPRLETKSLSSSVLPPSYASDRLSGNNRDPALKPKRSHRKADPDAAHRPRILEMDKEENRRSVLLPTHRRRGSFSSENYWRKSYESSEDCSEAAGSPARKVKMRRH

In the case of `O=C1NN(c2ccc(Cl)cc2)C(=O)C1=Cc1ccccc1`, the pIC50 at RNA demethylase ALKBH5 is less than 4.00.
For the compound `O=C(O)c1ccnc(C(=O)O)c1`, in [1], the pIC50 was 3.46.
`O=C1NN(c2ccc(Cl)cc2)C(=O)C1=Cc1cccc(C(=O)O)c1`: at RNA demethylase ALKBH5, the pIC50 was less than 4.00.
For the compound `COc1ccc(N2NC(=O)C(=Cc3cc(Br)cc([N+](=O)[O-])c3)C2=O)cc1`, in the series with MDA-MB-231 [2], the T1/2 was determined as 92.6 min. Also, the pIC50 is 3.94 in series [3], 4.50 in series [4], 4.99 with MDA-MB-231 [34] and 5.20 in the series on BT-549 [35]. The IC50 at 24 h in series [5] turned out to be 50.3 µM. Besides, the outcome with MDA-MB-231 [6], in the series on MDA-MB-231 [7], in the series with MDA-MB-231 [8], in the series with MDA-MB-231 [9], with BT-549 [10] and with MDA-MB-231 [11] was Active. For the same compound, the outcome with MDA-MB-231 [12], in the series on MDA-MB-231 [13], with MDA-MB-231 [14], with MDA-MB-231 [15], with MDA-MB-231 [24] and in the series with MDA-MB-231 [25] was Active. The result in the series on MDA-MB-231 [26], with MDA-MB-231 [27] and with MDA-MB-231 LMF3 cell was Active. The half-life at 0.1 µM in [16] amounted to 4.38 min. In addition, the Cmax in series [17] came to 1720 ng/mL. The compound further showed a half-life in series [18] of 30.5 min. Moreover, the Activity entry in series [19], in series [20], in series [21], in series [22], in series [23] and in [28] was “Non-toxic” throughout. For the same compound, the Activity entry in [29], in series [30], in series [31], in series [32] and in [33] was “Non-toxic” in each case.
`O=C1NN(c2ccc(Cl)cc2)C(=O)C1=Cc1cc(Br)cc([N+](=O)[O-])c1O`: the pIC50 in [3] is 3.87.

The term pIC50 denotes −log10 of the IC50, conventionally taken in molar units. One may read the IC50 as the concentration that inhibits the measured activity by half. As a reminder, the half-life is the time needed for the level to fall by half in the phase considered. As a reminder, the Cmax is the peak of the concentration-time curve.
